Data reported in US20110305637A1, “RADIOLABELLED PDE10 LIGANDS” (Janssen Pharmaceutica N.V., priority 2009, published 2011).

Biological target: T1, PDE10A (Rattus norvegicus, UniProt Q9QYJ6)
T1 construct: from tissue; host or cells: brain (striatum) of living male Wistar rats, in vivo microPET
T1 sequence (Q9QYJ6 1-794): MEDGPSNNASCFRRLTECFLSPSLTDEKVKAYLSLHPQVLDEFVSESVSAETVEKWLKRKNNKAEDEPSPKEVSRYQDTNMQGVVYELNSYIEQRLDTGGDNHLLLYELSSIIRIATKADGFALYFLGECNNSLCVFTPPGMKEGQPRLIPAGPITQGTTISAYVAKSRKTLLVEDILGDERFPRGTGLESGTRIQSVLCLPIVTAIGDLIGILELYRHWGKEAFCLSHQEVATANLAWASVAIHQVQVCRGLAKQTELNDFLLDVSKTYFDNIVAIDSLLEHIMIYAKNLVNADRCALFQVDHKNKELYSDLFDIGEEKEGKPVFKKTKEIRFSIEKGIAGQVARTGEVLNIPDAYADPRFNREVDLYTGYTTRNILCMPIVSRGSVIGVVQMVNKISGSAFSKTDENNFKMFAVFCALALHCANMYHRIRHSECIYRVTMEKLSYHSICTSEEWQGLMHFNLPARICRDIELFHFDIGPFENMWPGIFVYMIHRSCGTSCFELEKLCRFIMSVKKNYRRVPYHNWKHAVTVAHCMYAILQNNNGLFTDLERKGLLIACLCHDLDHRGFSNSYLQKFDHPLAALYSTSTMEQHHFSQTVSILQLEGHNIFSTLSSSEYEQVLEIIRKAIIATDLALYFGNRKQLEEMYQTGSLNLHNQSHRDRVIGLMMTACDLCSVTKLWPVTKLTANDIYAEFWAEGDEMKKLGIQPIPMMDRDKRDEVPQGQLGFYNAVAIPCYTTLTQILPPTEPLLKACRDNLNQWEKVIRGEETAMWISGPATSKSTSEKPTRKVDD
Assay: microPET imaging study
Type: in vivo
Description: (§1) Imaging experiments were performed on a Focus™ 220 microPET scanner (Concorde Microsystems, Knoxville, Tenn., USA) using male Wistar rats with body weight between 200 and 300 g. Animals were injected with about 74 MBq of high specific activity formulation of [^18F]B-1 via tail vein under anesthesia (2.5% Isoflurane in O2 at 1 L/min flow rate). Dynamic scans of 90 min were acquired in List mode. Acquisition data were Fourier rebinned in different time frames (4×15 s, 4×1 min, 5×3 min, 14×5 min) and reconstructed with Filtered Back Projection (FBP). An average image (frame 1 to 27) of the reconstructed data was spatially normalized to an in-house created [^11C]raclopride template of the rat brain in Paxinos coordinates. The affine transformation was then used to normalize all time frames of the dynamic dataset to allow automated and symmetric volumes of interest (VOIs) analyses. Time-activity curves (TAC) were generated for striatum, cortex and cerebellum for each individual scan, using PMOD software (v 3.0, PMOD Technologies Ltd., Zurich, Switzerland). The radioactivity concentration in the different brain regions was expressed as standardized uptake value (SUV) as a function of time p.i. of the radiotracer by normalization for body weight of the animal and injected dose. Since PDE10A is expressed at low level in the cerebellum, binding potential (BP) values were calculated using the multilinear reference tissue model developed by Ichise et al. with the cerebellum considered as reference, using the same software (PMOD). Rats (n=5) were used for baseline imaging of which 3 animals were used in pretreatment studies in which the non-radioactive analogue B-1 was administered subcutaneously at a dose of 5 mg/kg at 30 min prior to the radiotracer injection.
Imaging experiments were performed on a Focus™ 220 microPET scanner (Concorde Microsystems, Knoxville, Tenn., USA) using male Wistar rats with body weight between 350 and 480 g. For the baseline microPET study, rats (n=2) were injected with about 74 MBq of high specific activity formulation of [^18F]B-2 via tail vein under anesthesia (2.5% Isoflurane in O2 at 1 L/min flow rate). For the pretreatment experiment, the radioactivity dose was reduced to about 37 MBq. Pretreatment was done by administering the non-radioactive analogue B-2 subcutaneously at a dose of 2.5 mg/kg at 60 min prior to the tracer injection (n=1).
as §1, with “Dynamic” for “Imaging experiments were performed on a Focus™ 220 microPET scanner (Concorde Microsystems, Knoxville, Tenn., USA) using male Wistar rats with body weight between 200 and 300 g. Animals were injected with about 74 MBq of high specific activity formulation of [^18F]B-1 via tail vein under anesthesia (2.5% Isoflurane in O2 at 1 L/min flow rate). Dynamic”, “120” for “90”, “8×5 min, 10×6” for “14×5”, “31)” for “27)”, “(PMOD).” for “(PMOD). Rats (n=5) were used for baseline imaging of which 3 animals were used in pretreatment studies in which the non-radioactive analogue B-1 was administered subcutaneously at a dose of 5 mg/kg at 30 min prior to the radiotracer injection.”

## [18F]CCCn1cc(-c2ccncc2)c(-c2ccc(OCc3ccc4ccccc4n3)cc2)n1 [[^18F]B-1]
B-1, 5 mg/kg s.c., 30 min prior to tracer
  binding potential (BP) value after non-radioactive analogue: 0.11±0.10
baseline
  time at which peak tissue concentrations in the brain were reached: within one minute
baseline, at 15 min post injection
  Peak striatum-to-cerebellum ratio: 2.7
baseline, until about 35 min post injection
  striatum-to-cerebellum ratio: higher than 2.5
baseline, cerebellum as reference
  binding potential (BP) value at baseline: 0.58±0.17
non-radioactive B-1, 5 mg/kg s.c., 30 min prior
  reduction in BP values with pretreatment compared to baseline: about 80%
pre-treated with non-radioactive B-1, 5 mg/kg s.c., 30 min prior
  striatum-to-cerebellum ratio after pre-treatment: 1.5
